Source: PubChem BioAssay (NCI)
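Values below derive from 48-hour exposures of cells grown in 96-well plates, with endpoints linearly interpolated between the two concentrations bracketing the appropriate inhibition level. Here, GI50 denotes the concentration required for 50% inhibition of growth. TGI: concentration producing complete growth inhibition.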

What was measured:
Experiment in all cases: inhibition of tumour cell growth, NCI panel, 48 h
HCT-15 colon = test system: HCT-15 colon
HL-60(TB) leukemia = test system: HL-60(TB) leukemia
HS 578T breast = test system: HS 578T breast
MDA-MB-435 = test system: MDA-MB-435
MOLT-4 leukemia = test system: MOLT-4 leukemia
SK-MEL-28 melanoma = test system: SK-MEL-28 melanoma
SR leukemia = test system: SR leukemia
U251 CNS = test system: U251 CNS
A498 renal = test system: A498 renal
MCF7 breast = test system: MCF7 breast

| SMILES | TGI (HCT-15 colon) [µM] | TGI (HL-60(TB) leukemia) [µM] | TGI (HS 578T breast) [µM] | TGI (MDA-MB-435) [µM] | TGI (MOLT-4 leukemia) [µM] | TGI (SK-MEL-28 melanoma) [µM] | TGI (SR leukemia) [µM] | TGI (U251 CNS) [µM] | TGI (A498 renal) [µM] | TGI (MCF7 breast) [µM] | GI50 (A498 renal) [µM] | GI50 (HCT-15 colon) [µM] | GI50 (HL-60(TB) leukemia) [µM] | GI50 (MCF7 breast) [µM] | GI50 (MDA-MB-435) [µM] | GI50 (MOLT-4 leukemia) [µM] | GI50 (SK-MEL-28 melanoma) [µM] | GI50 (SR leukemia) [µM] | GI50 (U251 CNS) [µM] |
| --- | --- | --- | --- | --- | --- | --- | --- | --- | --- | --- | --- | --- | --- | --- | --- | --- | --- | --- | --- |
| O=[N+]([O-])c1ccc(/C=N/Nc2nc3ccccc3[nH]2)o1 | 42.8 | 11.4 | > 100 | 18 | 27.3 | 23.8 | 23.6 | 92.8 | – | – | – | – | – | – | – | – | – | – | – |
| O=C1c2cc(O)c(O)cc2O[C@H](c2ccc(O)c(O)c2)[C@H]1O | > 100 | > 100 | > 100 | > 100 | > 100 | > 100 | > 100 | > 100 | > 100 | > 100 | – | – | – | – | – | – | – | – | – |
| Oc1ccc(C(=C(Br)c2ccccc2)c2ccc(O)cc2)cc1 | 14.3 | > 100 | 22 | 3.45 | 40.5 | 24 | – | 15.3 | 34.2 | 12.4 | – | – | – | – | – | – | – | – | – |
| CN1C(=O)CC(=O)N1/C(=C/c1ccccc1)c1ccccc1 | – | – | 88.1 | > 100 | 55.5 | > 100 | > 100 | > 100 | – | > 100 | – | – | – | – | – | – | – | – | – |
| O=C1c2cc3c(cc2-c2c1c1ccc(Cl)cc1c(=O)n2C[C@H](O)CO)OCO3 | 1.28 | 3.1 | – | 0.271 | 12.4 | 1.28 | 12.7 | 1.28 | 0.16 | 0.759 | 0.0387 | 0.11 | 0.0331 | < 0.01 | 0.0691 | < 0.01 | 0.2 | < 0.01 | 0.0198 |
| COC(=O)c1cc2c(cc1Cl)Sc1nnc(Nc3ccccc3)n1S2(=O)=O | 6.05 | 7.62 | 11.4 | 22.7 | 6.34 | 10.5 | 5.36 | 11.6 | 12.9 | 8.94 | – | – | – | – | – | – | – | – | – |
| O=C1c2ccccc2C(=O)c2[nH]cnc21 | > 100 | > 100 | – | – | > 100 | > 100 | > 100 | > 100 | > 100 | – | – | – | – | – | – | – | – | – | – |
| O=C(CSCC(=O)N/N=C/c1cccc(O)c1)N/N=C/c1cccc(O)c1 | > 100 | > 100 | > 100 | > 100 | > 100 | > 100 | > 100 | > 100 | > 100 | > 100 | – | – | – | – | – | – | – | – | – |
| Cc1ccc(S(=O)(=O)N(CC(O)COc2ccccc2)c2c(F)cccc2F)cc1 (stereo not given) | 37 | 93.1 | 46.1 | 30.5 | > 100 | 31 | 61.4 | 29.1 | 38.8 | 30.7 | – | – | – | – | – | – | – | – | – |
| CC(SC(=S)N1CCOCC1)C(=O)Nc1nnc(-c2ccc(Cl)cc2)o1 (stereo not given) | > 100 | – | > 100 | > 100 | > 100 | > 100 | 40.6 | > 100 | > 100 | > 100 | – | – | – | – | – | – | – | – | – |
| O=c1[nH]c2[nH]c(=S)[nH]c(=S)c2[nH]1 | > 100 | > 100 | > 100 | > 100 | > 100 | > 100 | > 100 | > 100 | > 100 | – | – | – | – | – | – | – | – | – | – |
| COc1ccc2nc3c(c(N)c2c1)C1CCC3C1(C)C (stereo not given) | > 100 | 68.6 | > 100 | > 100 | > 100 | > 100 | > 100 | > 100 | 70.7 | > 100 | – | – | – | – | – | – | – | – | – |
| COc1ccc(OC)c2sc(N3C(=O)/C(=C/c4cccc(Oc5ccccc5)c4)N=C3c3ccccc3)nc12 | > 100 | > 100 | > 100 | > 100 | > 100 | > 100 | – | > 100 | > 100 | > 100 | – | – | – | – | – | – | – | – | – |
| O=C1C(Cl)N(c2ccccc2Cl)C1c1c[nH]c2ccccc12 (stereo not given) | – | > 100 | – | – | > 100 | > 100 | > 100 | > 100 | – | – | – | – | – | – | – | – | – | – | – |
| Cc1ccc(S(=O)(=O)OC2CC(C(C)(C)C)CCC2c2ccccc2)cc1 (stereo not given) | > 100 | > 100 | – | > 100 | > 100 | > 100 | > 100 | > 100 | > 100 | > 100 | – | – | – | – | – | – | – | – | – |
| CCOC(=O)c1c2c(n(-c3ccc(C)cc3)c1C)-c1ccccc1C(=O)C2(C(=O)OCC)C(=O)OCC | > 100 | 18.6 | 86.5 | 93.5 | > 4.64 | > 85.5 | > 4.64 | > 100 | 97.3 | 76.6 | – | – | – | – | – | – | – | – | – |
| C=C(C#N)C(=O)OCC(CC)CC.C=C(C#N)C(=O)OCC(CC)CC.CS(C)=O.CS(C)=O.Nc1c(N=Nc2ccc(-c3ccc(N=Nc4cc(S(=O)(=O)[O-])c5ccccc5c4N)cc3)cc2)cc(S(=O)(=O)[O-])c2ccccc12.[Pt+2] | > 69.3 | 23.6 | – | – | > 91.3 | 43 | – | > 100 | > 100 | > 100 | > 71.4 | 33.2 | 15.8 | 24.2 | – | 27.1 | 21.7 | – | 46.7 |
| COc1ccc2nc3cc(Cl)ccc3c(NC(C)CCCN(CCCl)CCCl)c2c1 (stereo not given) | 6.56 | 0.94 | – | – | 0.344 | 18.4 | 0.502 | 5.65 | 18.7 | – | – | – | – | – | – | – | – | – | – |
| CSCCC(C(=O)O)N(C)C (stereo not given) | > 100 | > 100 | > 100 | > 100 | – | > 100 | > 100 | > 100 | > 100 | > 100 | – | – | – | – | – | – | – | – | – |
